Results as given in US20200291100A1, “TREATMENT OF AGE-RELATED AND MITOCHONDRIAL DISEASES BY INHIBITION OF HIF-1 ALPHA FUNCTION” (President and Fellows of Harvard College, priority 2012, published 2020).

Tests used:
[1] = tested on: primary PGC-1α/β KO myotubes; test: NMN with or without HIF stabilizing compounds in PGC-1α/β KO myotubes, qPCR of mitochondrially-encoded ETC genes; format: cell-based, mouse
Experimental: As a functional test of whether NMN reverses genome asynchrony by depleting cells of HIF-1α, primary PGC-1α/β KO myotubes were incubated with NMN in the presence and absence of the HIF stabilizing compounds DMOG and DFO. […] Primary myoblasts cells were isolated from WT, SIRT1 KO (Price et al., 2012) and PGC-1α/β KO (Zechner et al., 2010) mice as previously described (Price et al., 2012). WT and PGC-1α/β KO primary myoblasts were plated and allowed to differentiate into myotubes by replacing the media with low glucose DMEM supplemented with 2% horse serum (Sigma-Aldrich) for 4 days. After the differentiation the cells were infected with empty vector or flag-SIRT1 adenovirus as described before ([…] al., 2007). Media was replaced with fresh DMEM supplemented with 2% horse serum (Sigma-Aldrich) for an additional 48 hr and, after that the cells were harvested for the different assays as described. […] Quantitative RT-PCR reactions were performed using 1 μM of primers and LightCycler® 480 SYBR Green Master (Roche) on an LightCycler® 480 detection system (Roche). Calculations were performed by a comparative method (2-ΔCT) using 18S as an internal control. For mtDNA analysis, total DNA was extracted with DNeasy blood and tissue kit (Qiagen). mtDNA was amplified using primers specific for the mitochondrial cytochrome c oxidase subunit 2 (COX2) gene and normalized to genomic DNA by amplification of the ribosomal protein s18 (rps18) nuclear gene. Primers were designed using the IDT software (IDT) and the primer sequences can be found in Table 1.

Egln1 KO mice = test: NMN treatment of Egln1 KO mice; format: in vivo, mouse; conditions: skeletal muscle of Egln1 KO mice compared to WT controls; NMN 500 mg/kg IP, 7 days
Experimental: Whole body adult-inducible Egln1 knockout mice (Minamishima et al, 2007) were treated with IP injection of tamoxifen for 3 days after which they were allowed to rest. The mice were given interperitoneal (IP) injections of 500 mg NMN/kg body weight per day or the equivalent volume of PBS for 7 consecutive days at 5:00 pm and 7:00 am on day 8 and sacrificed 4 hr after last injection. All animal studies followed the guidelines of and were approved by the Harvard Institutional Animal Care and Use Committee.
(§1) ATP content was measured with a commercial kit according to the manufacturer's instructions (Roche).
RNA from skeletal muscle tissue and C2C12 cells were extracted with RNeasy mini kit (Qiagen) according to the instructions and quantified using the NanoDrop 1000 spectrophotometer (Thermo Scientific). cDNA was synthesized with the iSCRIP cDNA synthesis kit (BioRad) using 600 ng of RNA. Quantitative RT-PCR reactions were performed using 1 μM of primers and LightCycler® 480 SYBR Green Master (Roche) on an LightCycler® 480 detection system (Roche). Calculations were performed by a comparative method (2-ΔCT) using 18S as an internal control. […]

SIRT1-tg mice = test: DMOG treatment of SIRT1-tg mice, gastrocnemius readouts; format: in vivo, mouse; conditions: DMOG 300 mg/kg IP per day, 5 days
Experimental: Whole body SIRT1 overexpressor (SIRT1-tg) mice of 6 months of age were given interperitoneal (IP) injections of 300 mg DMOG/kg body weight per day or the equivalent volume of PBS for 5 consecutive days.
as §1
RNA from skeletal muscle tissue and C2C12 cells were extracted with RNeasy mini kit (Qiagen) according to the instructions and quantified using the NanoDrop 1000 spectrophotometer (Thermo Scientific). cDNA was synthesized with the iSCRIP cDNA synthesis kit (BioRad) using 600 ng of RNA. Quantitative RT-PCR reactions were performed using 1 μM of primers and LightCycler® 480 SYBR Green Master (Roche) on an LightCycler® 480 detection system (Roche). Calculations were performed by a comparative method (2-ΔCT) using 18S as an internal control. For mtDNA analysis, total DNA was extracted with DNeasy blood and tissue kit (Qiagen). mtDNA was amplified using primers specific for the mitochondrial cytochrome c oxidase subunit 2 (COX2) gene and normalized to genomic DNA by amplification of the ribosomal protein s18 (rps18) nuclear gene. Primers were designed using the IDT software (IDT) and the primer sequences can be found in Table 1.
Protein extracts from tissue or C2C12 cells were obtained by lysis in ice-cold lysis buffer (150 mM NaCl, 10 mM Tris HCl (pH 7.4), 1 mM EDTA, 1 mM EGTA, 1% Triton X-100, 0.5% NP-40) supplemented with a cocktail of protease and phosphatase inhibitors (Roche). Protein content was determined by the Bradford protein assay (Biorad), and 50 μg proteins were run on SDS-PAGE under reducing conditions. The separated proteins were then electrophoretically transferred to a polyvinylidene difluoride membrane (Perkin-Elmer). […] The immunostaining was detected using horseradish peroxidase-conjugated anti-rabbit or anti-mouse immunoglobulin for 1 h at room temperature.

TFAM promoter = TFAM promoter luciferase assay in primary WT myoblasts treated with DMOG; format: cell-based, mouse; conditions: DMOG versus DMSO
Experimental: TFAM promoter, VHL promoter, HRE and c-Myc activity were determined using a luciferase-based system. Luciferase activity was measured using the Dual-Luciferase Reporter Assay System (Promega) with Renilla as the reference.
TFAM promoter activity was evaluated using a TFAM promotes-luc plasmid. A fragment of the mouse Tfam promoter (1.4 kb upstream of the coding sequence) was cloned into a pGL4.15 vector (Promega). Luciferase activity was measured using the Dual-Luciferase Reporter Assay System (Promega) with Renilla as the reference 48 h after transfection.
c-Myc was previously shown to directly bind to the TFAM promoter in cancer cells (Li et al., 2005) and consistent with this report, it was observed that knockdown of c-Myc in primary myoblasts leads to decreased TFAM promoter activity (FIG. 16E). Mutation of the c-Myc consensus sequence, CACGTG, present in the TFAM promoter decreased the promoter activity by about half of the full length promoter (FIG. 16F). […] Next it was tested whether c-Myc binding site was required for SIRT1's ability to induce TFAM promoter activity. Overexpression of SIRT1 in primary myoblasts lead to an increase in the full length TFAM promoter activity, however disruption of c-Myc binding site was sufficient to completely prevent the ability of SIRT1 to induce TFAM promoter activity (FIG. 16H). […]

Row | Structure (SMILES) | expression of mitochondrially-encoded ETC genes (ND1, CYTB, COX1, ATP6) ([1]; NMN alone, versus PBS) | ATP levels (Egln1 KO mice) | mitochondrial-encoded genes (Egln1 KO mice) | HIF-1α protein (immunoblot) (SIRT1-tg mice) | effect on the increase in ATP levels observed in SIRT1-tg mice (SIRT1-tg mice) | effect on the increase in expression of mitochondrial-encoded genes observed in SIRT1-tg mice (SIRT1-tg mice) | effect on NMN-induced expression of mitochondrially-encoded ETC genes ([1]; HIF stabilizing compound added to NMN-treated cells, 1 mM DMOG or 10 μM DFO, 12 hours) | full length TFAM promoter activity (TFAM promoter) | TFAM promoter activity, c-Myc consensus sequence mutation (TFAM promoter; in the absence of the c-Myc binding site)
1 | NC(=O)c1ccc[n+]([C@@H]2O[C@H](COP(=O)([O-])O)[C@@H](O)[C@H]2O)c1 [NMN, nicotinamide mononucleotide] | induced expression | did not restore | did not restore |  |  |  |  |  | 
2 | COC(=O)CNC(=O)C(=O)OC [DMOG, dimethyloxaloylglycine] |  |  |  | increase HIF-1α | abolished the increase | abolished the increase | completely abolished | reduces | does not have an additive effect
